# Assay results as given in patent US10500209B2, “Quinazolinones as bromodomain inhibitors” (Zenith Epigenetics Ltd., priority 2013, dated 2019).
# What was measured:
# [1] = target: T1, Brd4 bromodomain 1 (BRD4(1)) (Homo sapiens, UniProt O60885); experiment: Inhibition of tetra-acetylated histone H4 binding to BET bromodomains (TR-FRET); parameters: key: Active: Compounds with an IC50 value less than 30 μM were deemed to be active.; Not Active: Compounds with an IC50 value less than 30 μM were deemed to be active; conditions: first bromodomain of Brd4, tetra-acetylated histone H4 peptide
# T1 construct: made in house; host or cells: E. coli BL21(DE3)
# Description: Proteins were cloned and overexpressed with a N-terminal 6×His tag, then purified by nickel affinity followed by size exclusion chromatography. Briefly, E. coli BL21(DE3) cells were transformed with a recombinant expression vector encoding N-terminally Nickel affinity tagged bromodomains from Brd2, Brd3, Brd4. Cell cultures were incubated at 37° C. with shaking to the appropriate density and induced overnight with IPTG. The supernatant of lysed cells was loaded onto Ni-IDA column for purification. Eluted protein is pooled, concentrated and further purified by size exclusion chromatography. Fractions representing monomeric protein were pooled, concentrated, aliquoted, and frozen at −80° C. for use in subsequent experiments.
# Binding of tetra-acetylated histone H4 and BET bromodomains was confirmed by a Time Resolved Fluorescence Resonance Energy Transfer (TR-FRET) method. N-terminally His-tagged bromodomains (200 nM) and biotinylated tetra-acetylated histone H4 peptide (25-50 nM, Millipore) were incubated in the presence of Europium Cryptate-labeled streptavidin (Cisbio Cat. #610SAKLB) and XL665-labeled monoclonal anti-His antibody (Cisbio Cat. #61HISXLB) in a white 96 well microtiter plate (Greiner). For inhibition assays, serially diluted test compound was added to these reactions in a 0.2% final concentration of DMSO. Final buffer concentrations were 30 mM HEPES pH 7.4, 30 mM NaCl, 0.3 mM CHAPS, 20 mM phosphate pH 7.0, 320 mM KF, 0.08% BSA). After a 2-h incubation at room temperature, the fluorescence by FRET was measured at 665 and 620 nm by a SynergyH4 plate reader (Biotek). The binding inhibitory activity was shown by a decrease in 665 nm fluorescence relative to 620 nm. IC50 values were determined from a dose response curve.
SMILES,melting point,FRET activity BRD4(1) [1]
"COc1cnc(-c2nc3cc(OC)cc(OC)c3c(=O)[nH]2)c(NC2CCN(C)CC2)c1 [Example 40, 5,7-Dimethoxy-2-(5-methoxy-3-((1-methylpiperidin-4-yl)amino)pyridin-2-yl)quinazolin-4(3H)-one]",191 to 193 °C,Active
"COc1ccc(-c2nc3cc(OC)cc(OC)c3c(=O)[nH]2)c(NCCN2CCCCC2)c1 [Example 12, 5,7-Dimethoxy-2-(4-methoxy-2-((2-(piperidin-1-yl)ethyl)amino)-phenyl)quinazolin-4(3H)-one]",231 to 232 °C,Active
"COc1cc(OC)c2c(=O)[nH]c(-c3ncccc3NC3CCN(C)CC3)nc2c1 [Example 44, 5,7-Dimethoxy-2-(3-((1-methylpiperidin-4-yl)amino)pyridine-2-yl)quinazolin-4(3H)-one]",186 to 188 °C,Active
"COc1cc(OC)c2c(=O)[nH]c(-c3ncccc3N[C@H]3CC[C@@H](C(=O)N(C)C)CC3)nc2c1 [Example 53, cis-4-((2-(5,7-Dimethoxy-4-oxo-3,4-dihydroquinazolin-2-yl)pyridin-3-yl)amino)-N,N-dimethylcyclohexane-1-carboxamide]",276 to 278 °C,Active
"COc1cc(OC)c2c(=O)[nH]c(-c3ccc(Cl)cc3NC3CCN(C(C)C)CC3)nc2c1 [Example 33, 2-(4-Chloro-2-((1-isopropylpiperidin-4-yl)amino)phenyl)-5,7-dimethoxyquinazolin-4(3H)-one]",265 °C (dec.),–
"COc1cncc2nc(-c3ncccc3NC3CCN(C(C)C)CC3)[nH]c(=O)c12 [Example 58, 2-(3-((1-Isopropylpiperidin-4-yl)amino)pyridin-2-yl)-5-methoxypyrido[3,4-d]pyrimidin-4(3H)-one]",237 to 238 °C,Active
"COc1ccc(-c2nc3cc(OC)cc(OC)c3c(=O)[nH]2)c(NCC2CCN(C)CC2)c1 [Example 6, 5,7-Dimethoxy-2-(4-methoxy-2-(((1-methylpiperidin-4-yl)methyl)amino)phenyl) quinazolin-4(3H)-one]",264 to 265 °C,Active
"COc1ccc(-c2nc3cc(OC)cc(OC)c3c(=O)[nH]2)c(NCCCN2CCOCC2)c1 [Example 13, 5,7-Dimethoxy-2-(4-methoxy-2-((3-morpholinopropyl)amino)-phenyl)quinazolin-4(3H)-one]",234 to 235 °C,Active
"COc1ccc(-c2nc3cc(OC)cc(OC)c3c(=O)[nH]2)c(NCCN2CCCC2)c1 [Example 11, 5,7-Dimethoxy-2-(4-methoxy-2-((2-(pyrrolidin-1-yl)ethyl)amino)phenyl)quinazolin-4(3H)-one]",226 to 228 °C,Active
"COc1cc(OC)c2c(=O)[nH]c(-c3ccc(Cl)cc3NC3CCN(C(=O)C(C)C)CC3)nc2c1 [Example 34, 2-(4-Chloro-2-((1-isobutyrylpiperidin-4-yl)amino)phenyl)-5,7-dimethoxyquinazolin-4(3H)-one]",281 to 283 °C,Active
"COc1ccc(-c2nc3cc(OC)cc(OC)c3c(=O)[nH]2)c(N(C)C2CCN(C)CC2)c1 [Example 5, 5,7-Dimethoxy-2-(4-methoxy-2-(methyl(1-methylpiperidin-4-yl)amino)phenyl) quinazolin-4(3H)-one]",217 to 218 °C,–
"COc1ccc(-c2nc3cc(OC)cc(OC)c3c(=O)[nH]2)c(NC2CCC(C)(C)CC2)c1 [Example 29, 2-(2-((4,4-Dimethylcyclohexyl)amino)-4-methoxyphenyl)-5,7-dimethoxyquinazolin-4(3H)-one]",–,Active
"COc1cc(OC)c2c(=O)[nH]c(-c3ncccc3NCC3CCN(C)C3)nc2c1 (stereo not drawn) [Example 41, 5,7-Dimethoxy-2-(3-(((1-methylpyrrolidin-3-yl)methyl)amino)pyridin-2-yl)quinazolin-4(3H)-one]",157 to 159 °C,Active
"COc1cc(OC)c2c(=O)[nH]c(-c3ncccc3NCCCNC(C)C)nc2c1 [Example 43, 2-(3-((3-(Isopropylamino)propyl)amino)pyridin-2-yl)-5,7-dimethoxyquinazolin-4(3H)-one]",121 to 122 °C,Active
"COc1ccc(-c2nc3cc(OC)cc(OC)c3c(=O)[nH]2)c(C(=O)N2CCN(C)CC2)c1 [Example 2, 5,7-Dimethoxy-2-(4-methoxy-2-(4-methylpiperazine-1-carbonyl)phenyl) quinazolin-4(3H)-one]",–,Active
"COc1cc(OC)c2c(=O)[nH]c(-c3ncccc3NC3CCN(C(C)(C)CO)CC3)nc2c1 [Example 68, 2-(3-((1-(1-Hydroxy-2-methylpropan-2-yl)piperidin-4-yl)amino)pyridin-2-yl)-5,7-dimethoxyquinazolin-4(3H)-one]",223 to 225 °C,Active
"COc1ccc(-c2nc3cc(OC)cc(OC)c3c(=O)[nH]2)c(NC2CCN(Cc3ccccc3)CC2)c1 [Example 35, 2-(2-((1-Benzylpiperidin-4-yl)amino)-4-methoxyphenyl)-5,7-dimethoxyquinazolin-4(3H)-one]",–,Active
"COc1cc(N)cc2nc(-c3ncccc3NC3CCN(C(C)C)CC3)[nH]c(=O)c12 [Example 65, 7-amino-2-(3-((1-Isopropylpiperidin-4-yl)amino)pyridin-2-yl)-5-methoxyquinazolin-4(3H)-one]",–,Active
"COc1cc(OC)c2c(=O)[nH]c(-c3cccc(NC4CCN(C(C)C)CC4)c3)nc2c1 [Example 27, 2-(3-((1-Isopropylpiperidin-4-yl)amino)phenyl)-5,7-dimethoxyquinazolin-4(3H)-one]",–,Active
"COc1cc(OC)c2c(=O)[nH]c(-c3ncccc3NC3CCN(C(N)=O)CC3)nc2c1 [Example 54, 4-((2-(5,7-Dimethoxy-4-oxo-3,4-dihydroquinazolin-2-yl)pyridin-3-yl)amino)piperidine-1-carboxamide]",265 to 266 °C,Active
"COc1ccc(-c2nc3cc(OC)cc(OC)c3c(=O)[nH]2)c(NC2CCN(C)C2)c1 (stereo not drawn) [Example 4, 5,7-Dimethoxy-2-(4-methoxy-2-((1-methylpyrrolidin-3-yl)amino)phenyl)quinazolin-4(3H)-one]",214 to 215 °C,Active
"COc1cnc(-c2nc3cc(OC)cc(OC)c3c(=O)[nH]2)c(N[C@H]2CC[C@@H](NC(=O)C(C)C)CC2)c1 [Example 38, N-(cis-4-((2-(5,7-Dimethoxy-4-oxo-3,4-dihydroquinazolin-2-yl)-5-methoxypyridin-3-yl)amino)cyclohexyl)isobutyramide]",285 °C (dec.),–
"COc1cc(OC)c2c(=O)[nH]c(-c3ncccc3NCCN3CCOCC3)nc2c1 [Example 49, 5,7-Dimethoxy-2-(3-((2-morpholinoethyl)amino)pyridine-2-yl)quinazolin-4(3H)-one]",168 to 170 °C,Active
"COc1ccc(-c2nc3cc(OC)cc(OC)c3c(=O)[nH]2)c(NCCN2CCNCC2)c1 [Example 24, 5,7-Dimethoxy-2-(4-methoxy-2-((2-(piperazin-1-yl)ethyl)amino)phenyl)quinazolin-4(3H)-one]",210 to 212 °C,Active
"COc1cc(OC)c2c(=O)[nH]c(-c3ccccc3NC3CCN(C(C)C)CC3)nc2c1 [Example 10, 2-(2-((1-Isopropylpiperidin-4-yl)amino)phenyl)-5,7-dimethoxyquinazolin-4(3H)-one]",267 to 269 °C,Active
